“And” between values parts separate entries of the source, which are not always exact repeats. Identical values can stand only once.
What was measured:
[1] = Hydrogel coating stability and reaction with ethylene oxide (ETO)
Method: Releases of CSA-131 from hydrogel-based coatings were investigated, including examining coating stability and reaction of the coating with ethylene oxide (ETO) during sterilization processes. […] To mask this reactivity, coatings were prepared including varies percentages of citric acid to form non-volatile salts of the CSA compound.
Using a jet mill (Fluid Energy), CSA-131 2-NDSA was milled to an average particle size of 200 nm.

[2] = test system: Pseudomonas aeruginosa (PA01); test: Coated endotracheal tube segments, daily re-inoculation, growth in medium; type: cell-based; parameters: key to bacterial growth in medium, Day 1 / bacterial growth in medium, Day 2 / bacterial growth in medium, Day 3 / bacterial growth in medium, Day 4 / bacterial growth in medium, Day 5 / bacterial growth in medium, Day 6 / bacterial growth in medium, Day 7 / bacterial growth in medium, Day 10 / bacterial growth in medium, Day 8 / bacterial growth in medium, Day 9: N=no growth; G=growth
Method: (§1) A hydrogel coating containing 10% CSA-131 HCl and 3% citric acid, relative to the hydrogel solids, was tested for antibacterial efficacy using endotracheal tube segments (5.0 mm). These tube segments (surface area of ca. 1.5 cm^2) were dip coated and cured to give coatings of approximately 10 microns. Coated tube segments were washed in phosphate buffered saline (PBS) for varied amounts of time before testing. Antibacterial testing involved immersing tube segments in 10% TSB in PBS (1.0 mL) and inoculating with Pseudomonas aeruginosa (PA01)@10^6 colony forming units (CFU). Samples were incubated for 24 h, and bacterial growth in the medium was assayed visually (i.e., turbidity in the medium is caused by unrestricted bacterial growth). […] And the converse is true: if growth is supported in the medium that the device is colonized, to some extent.
(§2) After 24 h of incubation, tube segments were immersed in fresh growth media (10% TSB in PBS, 1 mL), re-inoculated, and incubated. […] Experiments were performed in triplicate. N=no growth, G=growth.
(§3) Antibacterial activity of a hydrogel coating (ca. 10 microns) containing CSA-131 2-NDSA (10% by weight relative to hydrogel solids) was determined as described in Example 8 using methicillin-resistant Staphylococcus aureus (MRSA) and Pseudomonas aeruginosa (PA01).

[3] = test system: methicillin-resistant Staphylococcus aureus (MRSA); test: as above; type: cell-based; parameters: key to bacterial growth in medium, Day 1 / bacterial growth in medium, Day 10 / bacterial growth in medium, Day 2 / bacterial growth in medium, Day 3 / bacterial growth in medium, Day 4 / bacterial growth in medium, Day 5 / bacterial growth in medium, Day 6 / bacterial growth in medium, Day 7 / bacterial growth in medium, Day 8 / bacterial growth in medium, Day 9: N=no growth; G=growth
Method: as §1, §2, §3

PA01 = test: Drip flow system, whole coated endotracheal tubes; type: cell-based, Pseudomonas aeruginosa; details: hydrogel 10% CSA-131 2-NDSA; three inoculations of 10^7 CFU, 24 h; detection limit 10 CFU
Method: At eight-hour intervals, bacteria (PA01, 10^6 CFU/mL) were passed through the tubes for 10 min (total of 10^7 CFU) at each interval. At a time point 30 min after introduction of bacteria, the growth medium flowing through the tubes was collected and plated to determine the number of bacterial colonies present. After 24 h, tubes were removed and sections (5 mm) were cut from above and below the cuff. These were sonicated in a neutralizing medium and the resulting solution was plated to quantify bacterial biofilm growth.

[4] = Unwashed, hydrogel coating 10% CSA-131 HCl, 3% citric acid, PA01 re-inoculated every 24 h
[5] = Wash Time 15 min in PBS, hydrogel coating 10% CSA-131 HCl, 3% citric acid, PA01 re-inoculated every 24 h
[6] = Wash Time 30 min in PBS, hydrogel coating 10% CSA-131 HCl, 3% citric acid, PA01 re-inoculated every 24 h
[7] = Wash Time 1 hour in PBS, hydrogel coating 10% CSA-131 HCl, 3% citric acid, PA01 re-inoculated every 24 h
[8] = three replicates, hydrogel coating 10% CSA-131 2-NDSA, re-inoculated every 24 h
[9] = PA01, three replicates, hydrogel coating 10% CSA-131 2-NDSA, re-inoculated every 24 h

In the case of `CCCCCCCCCCCCNCCC[C@@H](C)[C@H]1CC[C@H]2[C@@H]3[C@H](OCCCN)C[C@@H]4C[C@H](OCCCN)CC[C@]4(C)[C@H]3C[C@H](OCCCN)[C@]12C.Cl.Cl.Cl.Cl` [CSA-131 HCl], the “mechanical integrity of coating on silicone tube segments” value ([1]; CSA-131 HCl 10% relative to coating solids, prolonged soaking in buffer) is reported as “some flaking of the coating”, the ETO adduct formation ([1]; hydrogel coating with at least 3% (by weight relative to hydrogel solids) citric acid) is reported as “eliminated” and the “reaction with ETO during sterilization” value ([1]; tube segments coated with hydrogel containing CSA-131 HCl (10%)) is reported as “substantial reaction, leading to ETO adducts”. The “bacterial growth in medium, Day 1” value [2, 4] was “N”, the “bacterial growth in medium, Day 2” value [2, 4] was “N” and the “bacterial growth in medium, Day 3” value [2, 4] was “N”. For the same compound, the “bacterial growth in medium, Day 4” value [2, 4] was “N”, the “bacterial growth in medium, Day 5” value [2, 4] was “G” and the “bacterial growth in medium, Day 6” value [2, 4] was “G”. For the same compound, the “bacterial growth in medium, Day 7” value [2, 4] was “G”, the “bacterial growth in medium, Day 1” value [2, 5] was “N” and the “bacterial growth in medium, Day 2” value [2, 5] was “N”. The “bacterial growth in medium, Day 3” value [2, 5] was “N”, the “bacterial growth in medium, Day 4” value [2, 5] was “N” and the “bacterial growth in medium, Day 5” value [2, 5] was “G”. For the same compound, the “bacterial growth in medium, Day 6” value [2, 5] was “G”, the “bacterial growth in medium, Day 7” value [2, 5] was “G” and the “bacterial growth in medium, Day 1” value [2, 6] was “N”. For the same compound, the “bacterial growth in medium, Day 2” value [2, 6] was “N”, the “bacterial growth in medium, Day 3” value [2, 6] was “N” and the “bacterial growth in medium, Day 4” value [2, 6] was “N”. The “bacterial growth in medium, Day 5” value [2, 6] was “G”, the “bacterial growth in medium, Day 6” value [2, 6] was “G” and the “bacterial growth in medium, Day 7” value [2, 6] was “G”. The “bacterial growth in medium, Day 1” value [2, 7] was “N”, the “bacterial growth in medium, Day 2” value [2, 7] was “N” and the “bacterial growth in medium, Day 3” value [2, 7] was “N”. The “bacterial growth in medium, Day 4” value [2, 7] was “N”, the “bacterial growth in medium, Day 5” value [2, 7] was “G” and the “bacterial growth in medium, Day 6” value [2, 7] was “G”. For the same compound, the “bacterial growth in medium, Day 7” value [2, 7] was “G”.
For `CCCCCCCCCCCCNCCC[C@@H](C)[C@H]1CC[C@H]2[C@@H]3[C@H](OCCCN)C[C@@H]4C[C@H](OCCCN)CC[C@]4(C)[C@H]3C[C@H](OCCCN)[C@]12C.O=S(=O)(O)c1cccc2c(S(=O)(=O)O)cccc12.O=S(=O)(O)c1cccc2c(S(=O)(=O)O)cccc12` [CSA-131 2-NDSA], the coating stability ([1]; CSA-131 2-NDSA in hydrogel coating) was “stable coatings”, the “reaction with ETO during sterilization” value ([1]; CSA-131 2-NDSA particles (200 nm) in hydrogel coating) was “did not react with ETO” and the “time coating prevented bacterial growth” value ([3]; hydrogel coating ca. 10 microns, 10% CSA-131 2-NDSA) was “eight”. The “bacterial growth in medium, Day 1” value [3, 8] was “N”, the “bacterial growth in medium, Day 2” value [3, 8] was “N” and the “bacterial growth in medium, Day 3” value [3, 8] was “N”. The “bacterial growth in medium, Day 4” value [3, 8] was “N”, the “bacterial growth in medium, Day 5” value [3, 8] was “N” and the “bacterial growth in medium, Day 6” value [3, 8] was “N”. The “bacterial growth in medium, Day 7” value [3, 8] was “G and N (2×)”, the “bacterial growth in medium, Day 8” value [3, 8] was “G and N (2×)” and the “bacterial growth in medium, Day 9” value [3, 8] was “G”. For the same compound, the “bacterial growth in medium, Day 10” value [3, 8] was “G”, the “bacteria from sonication of tube sections (biofilm)” value (PA01) was “no bacteria were detected” and the “bacteria in collected effluent from tubes” value (PA01) was “no bacteria were detected”. The “bacterial growth in medium, Day 1” value [2, 9] was “N”, the “bacterial growth in medium, Day 2” value [2, 9] was “N” and the “bacterial growth in medium, Day 3” value [2, 9] was “N”. The “bacterial growth in medium, Day 4” value [2, 9] was “N”, the “bacterial growth in medium, Day 5” value [2, 9] was “N” and the “bacterial growth in medium, Day 6” value [2, 9] was “N”. The “bacterial growth in medium, Day 7” value [2, 9] was “N”, the “bacterial growth in medium, Day 8” value [2, 9] was “G” and the “bacterial growth in medium, Day 9” value [2, 9] was “G”. The “bacterial growth in medium, Day 10” value [2, 9] was “G” and the “time coating prevented bacterial growth” value ([2]; PA01, hydrogel coating ca. 10 microns, 10% CSA-131 2-NDSA) was “seven”.
